# Measurements published in the METLIN SMRT retention time set (Domingo-Almenara et al. 2019).
# Assay: gradient 5% acetonitrile 3 min, to 50% in 2 min, to 85% in 15 min, held 3 min, 100 µL/min
# Conditions: column: Zorbax Extend-C18 2.1 x 50 mm; eluents: water / acetonitrile, 0.1% formic acid
# Procedure, shortened: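 Mixtures of ~100 pure standards were chromatographed on a Zorbax Extend-C18 column (2.1 × 50 mm, 1.8 μm) at 100 μL/min using water and acetonitrile, each with 0.1% formic acid. Detection used a quadrupole time-of-flight mass spectrometer in positive and negative ionization mode, and data collection spanned 3 months. Retention time was obtained from adduct peaks picked computationally and each checked manually.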
row,RP-LC retention time [s],SMILES
1,732,Cc1cc(C(=O)NCCCN2CCCC2=O)c2c(C)nn(-c3ccccc3)c2n1
2,727,CCOc1cc(=O)n2c(c1C(=O)Nc1cc(OC)ccc1OC)CCCC2
3,599,CC12CC(NC(=O)N1c1ccc(C(=O)N3CCN(c4ccccn4)CC3)cc1)c1ccccc1O2 (stereo not given)
4,886,CCOC(=O)C1CCN(C(=O)c2cc(CC)n3nc(-c4ccco4)cc3n2)CC1
5,796,O=C(Nc1cnc(N2CCCC2)nc1)c1cccc(Br)c1
6,1140,O=C(Nc1ccccc1F)N1CC(Oc2cccc(-c3nc(-c4ccccc4)no3)c2)C1
7,734,O=C(Nc1cccc(-c2cn3cccnc3n2)c1)c1ccc(Br)cc1
8,812,O=S(=O)(Cc1ccccc1)N1CCC(c2noc(-c3ccncc3)n2)C1 (stereo not given)
9,800,Cc1ccc(-c2cn3nc(N4CCCC(C(=O)N5CCOCC5)C4)sc3n2)cc1 (stereo not given)
10,934,O=C(NCCc1cccs1)C1CN(S(=O)(=O)C2CC2)CC12CCCCC2 (stereo not given)
11,1040,Cc1nn(-c2ccccc2)c(C)c1S(=O)(=O)N1CCC(C(=O)Nc2cccc(Cl)c2)CC1
12,921,CCCn1cc(S(=O)(=O)Nc2cc(C)ccc2F)c2cccnc21
13,919,CCC(=O)Nc1c(C)noc1/C=C/c1ccc(S(=O)(=O)N2CCC(C)CC2)s1
14,740,COc1ccc(C(=O)N2CCC3(CC2)NC(=O)c2ccc(F)cc2N3C)cc1
15,694,COc1cc(=O)n2c(c1C(=O)NC1CCCCCC1)CCCC2
16,919,CCC(=O)Nc1ccc(SCc2cc(C)ccc2C)nn1
17,826,Cc1cc(C)cc(N2C=C(C(=O)N3CCOCC3)S(=O)(=O)c3ccccc32)c1
18,592,Cc1cnc(C2CCC2)n1CC1CCN(C(=O)C2(c3ccccc3)CC2)CC1
19,1270,Cc1ccc(S(=O)(=O)N2CC(=O)N(C3CCCC3)C3(CCCCC3)C2)c(C)c1
20,903,COc1ccc(NC(=O)Cn2c(C)cc(-c3nnc(-c4ccco4)o3)c2C)cc1Cl
21,871,CCCCC(=O)Nc1nc(-c2ccc3c(c2)NC(=O)C(C)O3)c(C)s1 (stereo not given)
22,677,CC1=C(c2cccc(Cl)c2)S(=O)(=O)N=C1N1CCCN(C(=O)c2ccncc2)CC1
23,993,CC(C)n1cc(C2=CCN(S(=O)(=O)c3cccc4cccnc34)CC2)c2cccnc21
24,600,Cn1c(=O)n(C)c2cc(CNCCC3=CCCCC3)ccc21

row,RP-LC retention time [s],SMILES
1,641,CCNC(=O)c1n[nH]c2c1CCCC2
2,787,Cc1c(S(=O)(=O)NC2CC2)c(C)n(C)c1-c1nnc(C2CCC2)o1
3,670,CC(C)CCNC(=O)C1CCCCC(=O)N1 (stereo not given)
4,686,O=C(NCCCN1CCCC1=O)C(=O)NCCC1=CCCCC1
5,927,O=C(O)c1cc(NS(=O)(=O)c2ccccc2)ccc1N1CCCC(CN2CCCC2)C1 (stereo not given)
6,600,O=C(Nc1ccc(N2CCOCC2)cc1)c1cn2c(n1)COCC2
7,772,Cc1ccc(-n2cc3c(N4CCCC(C(=O)NCc5ccc(C)c(C)c5)C4)ncnc3n2)cc1 (stereo not given)
8,715,CCn1c(=O)n(CCc2ccccc2)c2cncnc21
9,726,O=C(NCc1ccc(Br)cc1)c1cn2ccccc2n1
10,620,CNC(=O)C1CCCN(c2nc3ncn(CC(=O)NCc4ccccc4)c(=O)c3s2)C1 (stereo not given)
11,546,COC[C@@H]1CN(c2cnccn2)C[C@H]1C(=O)NCC#N
12,616,CN(C)CCNC(=O)c1ccc2c(c1)N(Cc1ccc(F)cc1)C(=O)CO2
13,960,Cc1ccc(C)c(NS(=O)(=O)c2cn(C(C)C)c3ncccc23)c1
14,623,COc1ccc(-c2noc(Cn3ccn(-c4ccccc4OC)c(=O)c3=O)n2)cc1
15,1130,CCn1cc(-c2nc(C(=O)Nc3ccccc3F)cs2)c2cccnc21
16,609,Cn1c(C(=O)NCc2cccc(F)c2)cc2ccncc21
17,832,CCc1nc2onc(C)c2c(=O)n1CC(=O)NCC(C)c1ccccc1 (stereo not given)
18,751,COc1nn(C)cc1C(=O)NCC1(c2ccc(F)cc2)CC1
19,889,O=C(Cc1cccs1)Nc1cccn2nc(C3CCC3)nc12
20,1070,CC(C)N1C(=O)C(C)(C(=O)Nc2ccc(F)c(Cl)c2)Oc2cccnc21 (stereo not given)
21,937,O=C(c1csc(-c2ccc(N3CCCC3)nc2)n1)N1CCCCCC1
22,750,Cc1ccc(NC(=O)N2CCC3(CC2)NC(=O)c2ccccc2O3)c(C)c1
23,1020,Cc1ccc(NC(=O)c2cc3c(=O)n(CC(C)C)ccc3n2C)cc1Cl
24,614,COc1ccc(NC(=O)c2cc3c(s2)CN(C2CCCC2)C3)c(C)c1

row,RP-LC retention time [s],SMILES
1,1100,CCc1ccc(N2CC(c3noc(-c4ccc(F)cc4)n3)CC2=O)cc1 (stereo not given)
2,577,c1ccc2c(CCNc3ncnc4nc[nH]c34)c[nH]c2c1
3,570,O=C(CN1CCCC(COCc2ccccc2)C1)Nc1nccs1 (stereo not given)
4,995,CC(C)Cn1cc(CCNS(=O)(=O)c2ccc(Br)s2)c2cccnc21
5,585,Cc1ccccc1CN1C[C@@H]2C(=O)N(C)C(=O)[C@@H]2C1
6,864,CCCN(CCC)C(=O)C1COC2(CCCCC2)N1C(=O)c1c(OC)cccc1OC (stereo not given)
7,765,CCOC(=O)N1CCN(C(=O)CSc2ccc(C)cc2)CC1
8,825,CC(C)CCN1CC(=O)N2Cc3[nH]c4ccccc4c3C[C@H]2C1=O
9,560,CCCN(C)CC1(O)CCC2(CCN(C(=O)c3sccc3C)CC2)CC1
10,614,Cc1c(Cl)cccc1NC(=O)CCc1ccc2nc[nH]c2c1
11,738,O=C(C1CC1)N1CCN(c2ccc(=O)n(-c3cccc(Cl)c3)n2)CC1
12,737,CCOc1ccccc1C1NC(=O)N(CC(=O)NC2CCCC2)C2=C1C(=O)OC2 (stereo not given)
13,1020,Cc1ccc(NC(=O)Nc2nccn(-c3ccc(F)c(F)c3)c2=O)cc1F
14,760,COc1ccc(Cl)cc1NC(=O)N1CCC(c2cc(N)on2)CC1
15,600,CC(=O)NCc1nc2ccccc2n1CC(=O)Nc1ccccc1
16,1020,COc1ccc(CNC(=O)C2CCCN(c3nccnc3Sc3ccccc3)C2)c(OC)c1 (stereo not given)
17,693,O=C(CCc1cc(Cl)no1)NCCc1noc(C2CC2)n1
18,684,CSc1ccc(-c2nc3cnccn3c2Nc2cccc(C(N)=O)c2)cc1
19,693,CCc1nnc(-c2ccc(=O)n(CC(=O)Nc3ccc(C)cc3C)c2)o1
20,1160,Cc1cc(OC(=O)c2cc3ccccc3o2)c([N+](=O)[O-])c(=O)[nH]1
21,708,CCCn1cnc2cc(-c3noc(C(NC(=O)c4ccco4)C(C)C)n3)ccc21 (stereo not given)
22,983,Cc1ccn(S(=O)(=O)c2ccc(C(C)(C)C)cc2)n1
